# Data as given in patent publication US7465718B2, “Ansamycins having improved pharmacological and biological properties” (Conforma Therapeutics Corporation, priority 2002, dated 2008).
# Experiments:
# rHsp90 (low affinity) = experiment: Biotin-geldanamycin competition binding, purified native HSP90 protein (rHsp90, low affinity); conditions: read-out: rHsp90 (low affinity) IC50 nM; inhibition of biotin-GM binding to purified HSP90, 4° C.
# [1] = test system: HSP90 (cell lysate, high affinity); experiment: Biotin-geldanamycin competition binding, HSP90 in cell lysate (high affinity); conditions: for ratio: rHsp90 (low affinity) IC50 over lysate (high affinity) IC50; for IC50: read-out: Lysate (high affinity) IC50 nM, inhibition of biotin-GM binding to HSP90 in cell lysate, 4° C.
# SKOV-3 ovarian xenograft = SKOV-3 ovarian xenograft model; type: in vivo; conditions: tumors 200 mm3 before commencement of treatment
# From the text: Compounds have also been tested in HER-2 over-expressing tumor models such as BT474 breast and SKOV-3 ovarian carcinoma A therapy experiment with SKOV-3 is shown in FIG. 6. The treatment, doses, and schedule were the same as used in the A549 and MDA435 experiments. In this case, the tumors were allowed to become established and grow to a relatively large size (200 mm3) before commencement of treatment.
# HIV-1ROJO = experiment: Anti-HIV PBMC assay (reverse transcriptase activity in supernatant); conditions: for IC50: read-out: IC50 (μM) (50% inhibition of virus replication), HIV-1ROJO in fresh human PBMCs, 7 days; for TI (therapeutic index, TC50/IC50): HIV-1ROJO in PBMCs
# Her-2 = experiment: HER2 inhibition assay (Her-2 degradation in MCF7 cells, flow cytometry); type: cell-based; conditions: read-out: HER-2 degradation (IC50 nM)
# Method: MCF7 cells are seeded in 24 well plates at a density of approximately 30,000 cells/well and allowed to grow for 16 hours in DMEM supplemented with 10% FBS. Drug is then added at a concentration range of 100 uM to 0.01 uM. Cells are incubated for an additional 24. […] 10,000 events were collected per sample. A fluorescence histogram was generated and the mean fluorescence intensity (mfi) of each sample was determined using Cellquest software. The background was defined as the mfi generated from cells incubated with control IgG, and was subtracted from each sample stained with the HER-2/neu Ab. Percent degradation of Her-2 was calculated as follows: % Her-2 degradation=(mfi HER-2 sample)/(mfi HER-2 untreated cells)×100 Water Solubility Studies
# [2] = MTS assay to measure cytotoxicity of PBMC; type: cell-based, human; conditions: human, PBMC, PBMCs without virus, read-out: TC50 (μM) (50% cytotoxicity)
# Method: PBMC's in 96 well plates that were treated with compounds (without virus) were assayed for cell viability and compound toxicity using an MTS assay (CellTiter 96 Aqueous Non-Radioactivity Cell Proliferation Assay, Promega, Madison; Wis.).
# [3] = Water solubility studies (salts dissolved in water at room temperature); type: physicochemical; conditions: thermodynamic from solid, HCl salt, read-out: Solubility of the HCl salt in H2O
# Method: Various salts were prepared as described in the example section and dissolved in water at room temperature.
# HSP90 (bis-ANS treated) = experiment: Biotin-geldanamycin competition binding, bis-ANS treated HSP90
smiles,measurement,setting,value
CO[C@H]1/C=C\C=C(/C)C(=O)NC2=CC(=O)C(NC(=O)OCc3ccc(OC(C)=O)cc3)=C(C[C@@H](C)C[C@H](OC)[C@H](O)[C@@H](C)/C=C(\C)[C@@H]1OC(N)=O)C2=O [Compound #709],IC50,rHsp90 (low affinity),1500 nM
same,ratio,[1],167
same,IC50,[1],9 nM
"COC1/C=C\C=C(/C)C(=O)NC2=CC(=O)C(NC(=O)c3ccccc3)=C(CC(C)CC(OC)C(O)C(C)/C=C(\C)C1OC(N)=O)C2=O (stereo not shown) [Compound #563, 17-(benzoyl)-aminogeldanamycin]",IC50,rHsp90 (low affinity),4500 nM
same,melting point,,218 to 220 °C
same,ratio,[1],90
same,IC50,[1],50 nM
same,tumor growth in SKOV-3 xenograft,SKOV-3 ovarian xenograft,suppressed tumor growth almost completely
"C=CCNC1=C2C[C@@H](C)C[C@H](OC)[C@H](O)[C@@H](C)/C=C(\C)[C@H](OC(N)=O)[C@@H](OC)/C=C\C=C(/C)C(=O)NC(=CC1=O)C2=O [Compound 17-AAG, 17-allyl amino geldanamycin, reference compound]",IC50,HIV-1ROJO,0.38 µM
same,IC50,Her-2,5 nM
same,CC50,[2],2.02 µM
same,solubility,[3],< 10 µg/mL
"COC1/C=C\C=C(/C)C(=O)NC2=CC(=O)C(NC(=O)c3cc(C)nn3C(C)(C)C)=C(CC(C)CC(OC)C(O)C(C)/C=C(\C)C1OC(N)=O)C2=O (stereo not shown) [Compound #561, 17-(1-t-butyl-3-methyl-1H-pyrazole-5-carbonyl-amino)-geldanamycin]",melting point,,216 to 218 °C
CO/N=C1/[C@@H](OC)C[C@H](C)CC2=C(NC(=O)c3ccccc3)C(=O)C=C(NC(=O)/C(C)=C/C=C\[C@H](OC)[C@@H](OC(N)=O)/C(C)=C/[C@@H]1C)C2=O (stereo in doubt) [Compound #1012],IC50,HSP90 (bis-ANS treated),6 µM
COC1/C=C\C=C(/C)C(=O)NC2=CC(=O)C(NC(=O)NCc3ccc(F)cc3)=C(CC(C)CC(OC)C(O)C(C)/C=C(\C)C1OC(N)=O)C2=O (stereo not shown),melting point,,175 to 177 °C
COC1/C=C\C=C(/C)C(=O)NC2=CC(=O)C(NC(=O)c3c(C)noc3C)=C(CC(C)CC(OC)C(O)C(C)/C=C(\C)C1OC(N)=O)C2=O (stereo not shown),melting point,,190 to 192 °C
CCOP(=O)(NCCCCNC1=C2CC(C)CC(OC)C(O)C(C)/C=C(\C)C(OC(N)=O)C(OC)/C=C\C=C(/C)C(=O)NC(=CC1=O)C2=O)OCC (stereo not shown),melting point,,94.8 to 96.2 °C
"COC1/C=C\C=C(/C)C(=O)NC2=CC(=O)C(c3cccs3)=C(CC(C)CC(OC)C(O)C(C)/C=C(\C)C1OC(N)=O)C2=O (stereo not shown) [Compound #232, 17-(2-thiophen)-geldanamycin]",IC50,Her-2,80 nM
same,solubility,[3],< 10 µg/mL
CCO/N=C1/[C@@H](OC)C[C@H](C)CC2=C(NC(=O)c3ccccc3)C(=O)C=C(NC(=O)/C(C)=C/C=C\[C@H](OC)[C@@H](OC(N)=O)/C(C)=C/[C@@H]1C)C2=O (stereo in doubt) [Compound #1013],IC50,HSP90 (bis-ANS treated),5.2 µM
COC1C=CC=C(C)C(=O)NC2=CC(=O)C(NCCCN3CCN(CCCNC4=C5CC(C)CC(OC)C(O)C(C)C=C(C)C(OC(N)=O)C(OC)C=CC=C(C)C(=O)NC(=CC4=O)C5=O)CC3)=C(CC(C)CC(OC)C(O)C(C)C=C(C)C1OC(N)=O)C2=O (stereo not shown) [Compound #207],melting point,,162 °C
same,IC50,Her-2,12 nM
same,solubility,[3],≥ 13000 µg/mL
CO[C@H]1/C=C\C=C(/C)C(=O)NC2=CC(=O)C(NC(=O)c3ccccc3)=C(C[C@@H](C)C[C@H](OC)[C@@H](OC(=O)Cc3ccccc3)[C@@H](C)/C=C(\C)[C@@H]1OC(N)=O)C2=O [Compound #983],IC50,HSP90 (bis-ANS treated),7 µM
"COC1/C=C\C=C(/C)C(=O)NC2=CC(=O)C(NC(=O)c3ccccn3)=C(CC(C)CC(OC)C(O)C(C)/C=C(\C)C1OC(N)=O)C2=O (stereo not shown) [Compound #529, 17-picolinoyl-aminogeldanamycin]",IC50,rHsp90 (low affinity),1000 nM
same,melting point,,195 to 197 °C
same,ratio,[1],67
same,IC50,[1],15 nM
CCCCCC(=O)O[C@@H]1[C@@H](OC)C[C@H](C)CC2=C(NC(=O)c3ccccc3)C(=O)C=C(NC(=O)/C(C)=C/C=C\[C@H](OC)[C@@H](OC(N)=O)/C(C)=C/[C@@H]1C)C2=O [Compound #985],IC50,HSP90 (bis-ANS treated),12 µM
"CO[C@H]1/C=C\C=C(/C)C(=O)NC2=CC(=O)C(NC(=O)c3ccc(CN(C)C)cc3)=C(C[C@@H](C)C[C@H](OC)[C@H](O)[C@@H](C)/C=C(\C)[C@@H]1OC(N)=O)C2=O [Compound #687, 17-(4-dimethylaminomethyl-benzoyl)-aminogeldanamycin]",IC50,rHsp90 (low affinity),2000 nM
same,melting point,,203 to 206 °C
same,ratio,[1],250
same,IC50,[1],8 nM
COC1/C=C\C=C(/C)C(=O)NC2=CC(=O)C(NC(=O)c3cc(C)nn3C)=C(CC(C)CC(OC)C(O)C(C)/C=C(\C)C1OC(N)=O)C2=O (stereo not shown),melting point,,193 to 195 °C
C=CCO/N=C1/[C@@H](OC)C[C@H](C)CC2=C(NC(=O)c3ccccc3)C(=O)C=C(NC(=O)/C(C)=C/C=C\[C@H](OC)[C@@H](OC(N)=O)/C(C)=C/[C@@H]1C)C2=O (stereo in doubt) [Compound #1011],"TI (therapeutic index, TC50/IC50)",HIV-1ROJO,14.5
same,IC50,HIV-1ROJO,0.2 µM
same,CC50,[2],2.9 µM
same,IC50,HSP90 (bis-ANS treated),5 µM
CO[C@H]1/C=C\C=C(/C)C(=O)NC2=CC(=O)C(NC(=O)c3ccccc3)=C(C[C@@H](C)C[C@H](OC)[C@@H](OC(=O)CBr)[C@@H](C)/C=C(\C)[C@@H]1OC(N)=O)C2=O [Compound #981],IC50,HSP90 (bis-ANS treated),5.5 µM
"COC1/C=C\C=C(/C)C(=O)NC2=CC(=O)C(NC(=O)c3ccncc3)=C(CC(C)CC(OC)C(O)C(C)/C=C(\C)C1OC(N)=O)C2=O (stereo not shown) [Compound #530, 17-isonicotinoyl-aminogeldanamycin]",melting point,,167 to 169 °C
same,IC50,Her-2,100 nM
same,solubility,[3],> 2000 µg/mL
"COc1ccccc1C1=C2CC(C)CC(OC)C(O)C(C)/C=C(\C)C(OC(N)=O)C(OC)/C=C\C=C(/C)C(=O)NC(=CC1=O)C2=O (stereo not shown) [Compound #212, 17-(2-methoxy-phenyl)-geldanamycin]",IC50,Her-2,10 nM
same,solubility,[3],< 10 µg/mL
COC1C=CC=C(C)C(=O)NC2=CC(=O)C(NCCCN(C)CCCNC3=C4CC(C)CC(OC)C(O)C(C)C=C(C)C(OC(N)=O)C(OC)C=CC=C(C)C(=O)NC(=CC3=O)C4=O)=C(CC(C)CC(OC)C(O)C(C)C=C(C)C1OC(N)=O)C2=O (stereo not shown) [Compound #208],"TI (therapeutic index, TC50/IC50)",HIV-1ROJO,38.6
same,IC50,HIV-1ROJO,0.007 µM
same,melting point,,153 °C (dec.)
same,IC50,Her-2,11 nM
same,CC50,[2],0.27 µM
same,solubility,[3],≥ 20000 µg/mL
CO[C@H]1/C=C\C=C(/C)C(=O)NC2=CC(=O)C(NC(=O)OCC(C)C)=C(C[C@@H](C)C[C@H](OC)[C@H](O)[C@@H](C)/C=C(\C)[C@@H]1OC(N)=O)C2=O [Compound #749],"TI (therapeutic index, TC50/IC50)",HIV-1ROJO,56.0
same,IC50,HIV-1ROJO,0.02 µM
same,CC50,[2],1.12 µM
CO[C@H]1/C=C\C=C(/C)C(=O)NC2=CC(=O)C(NC(=O)c3ccccc3)=C(C[C@@H](C)C[C@H](OC)[C@@H](OC(=O)Cc3cccs3)[C@@H](C)/C=C(\C)[C@@H]1OC(N)=O)C2=O [Compound #984],IC50,HSP90 (bis-ANS treated),4.2 µM
"COC1/C=C\C=C(/C)C(=O)NC2=CC(=O)C(c3ccccc3)=C(CC(C)CC(OC)C(O)C(C)/C=C(\C)C1OC(N)=O)C2=O (stereo not shown) [Compound #133, 17-phenyl-geldanamycin]",IC50,Her-2,25 nM
same,solubility,[3],< 10 µg/mL
CO[C@H]1/C=C\C=C(/C)C(=O)NC2=CC(=O)C(NC(=O)c3ccccc3)=C(C[C@@H](C)C[C@H](OC)[C@@H](OC(=O)/C=C/c3cccs3)[C@@H](C)/C=C(\C)[C@@H]1OC(N)=O)C2=O [Compound #982],IC50,HSP90 (bis-ANS treated),5.5 µM
COC1/C=C\C=C(/C)C(=O)NC2=CC(=O)C(NC(=O)c3snnc3C)=C(CC(C)CC(OC)C(O)C(C)/C=C(\C)C1OC(N)=O)C2=O (stereo not shown),melting point,,157 to 159 °C
